Measurements taken from patent publication EP0429304A2, “Pyridone-carboxylic acid derivatives and their use as veterinary medicines” (SHIONOGI SEIYAKU KABUSHIKI KAISHA trading under the name of …, priority 1989, dated 1991).
Where a name gives a salt, the structure may show the parent alone. Read-outs that look alike come from different tables or passages of the source.

Legend:
[1] = system: Mycoplasma gallisepticum (MG) S6; assay: In vitro sensitivity test (liquid dilution method); assay type: cell-based; conditions: 37°C, 7 days
[2] = system: Mycoplasma gallisepticum (MG) T-7-T, TS-resistant strain isolated from the field; assay: In vitro sensitivity test (liquid dilution method); assay type: cell-based; conditions: 37°C, 7 days
[3] = system: Mycoplasma hyopneumoniae (Mh) ST-11; assay: In vitro sensitivity test (liquid dilution method); assay type: cell-based; conditions: 37°C, 7 days
[4] = system: Mycoplasma synoviae (MS) 1853; assay: In vitro sensitivity test (liquid dilution method); assay type: cell-based; conditions: 37°C, 7 days
In short: (§1)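 Mycoplasma synoviae strains tested by liquid dilution in Frey medium with 12% pig serum and 0.01% βNAD, 37 °C for 7 days. P. piscicida grown on heart infusion agar with 1.5% NaCl, 25 °C for 40–48 h.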

[5] = system: Mycoplasma synoviae (MS) F10-2as; assay: In vitro sensitivity test (liquid dilution method); assay type: cell-based; conditions: 37°C, 7 days
In short: as §1

[6] = system: Escherichia coli (E.coli) JC-2; assay: In vitro sensitivity test (agar dilution method); assay type: cell-based; conditions: 37°C, 20 to 24 hours
[7] = system: Salmonella typhimurium (S.typhi) 13311; assay: In vitro sensitivity test (agar dilution method); assay type: cell-based; conditions: 37°C, 20 to 24 hours
[8] = system: Staphylococcus aureus (S.au) 209P; assay: In vitro sensitivity test (agar dilution method); assay type: cell-based; conditions: 37°C, 20 to 24 hours
In short: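 Bacteria were of animal origin. MS strains were grown by liquid dilution in Frey medium with 12 % pig-serum and 0.01 % βNAD at 37°C for 7 days. S.au was tested by agar dilution on Mueller Hinton agar, 37°C for 20 to 24 hours. P.pis was grown on 1.5 % NaCl heart infusion agar at 25°C for 40 to 48 hours.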

[9] = system: TS-resistant MG; assay: Experimental MG infection to chicken, through bait; assay type: in vivo; conditions: for Number of fowl having air sack lesions / Infectious index Left air sack + / Infectious index Left air sack ++ / Infectious index Left air sack +++ / Infectious index Left air sack - / Infectious index Right air sack + / Infectious index Right air sack ++ / Infectious index Right air sack +++ / Infectious index Right air sack -: 9-days chicken, 1.8 x 10³ CFU/fowl; for Infectious index Left air sack + / Infectious index Left air sack ++ / Infectious index Left air sack +++ / Infectious index Left air sack - / Infectious index Right air sack + / Infectious index Right air sack ++ / Infectious index Right air sack +++ / Infectious index Right air sack -: count of fowl
[10] = system: Hemophilus pleuropneumonia (H.pp) M-1; assay: In vitro sensitivity test (agar dilution method); assay type: cell-based; conditions: 37°C, 20 hours, 10 % CO₂
[11] = system: TS-resistant strain of MG; assay type: in vivo, chicken; conditions: for Infectious index Left air sack + / Infectious index Left air sack ++ / Infectious index Left air sack +++ / Infectious index Left air sack - / Infectious index Right air sack + / Infectious index Right air sack ++ / Infectious index Right air sack +++ / Infectious index Right air sack -: count of fowl
[12] = oral 100 mg/kg, 9-days chicken, 1.7 x 10³ CFU/fowl
[13] = oral 100 mg/kg, 9-days chicken, 2.2 x 10³ CFU/fowl
[14] = oral 100 mg/kg, 10-days chicken, 1.2 x 10³ CFU/fowl
[15] = oral 100 mg/kg, 10-days chicken, 3.0 x 10³ CFU/fowl
[16] = oral 200 mg/kg, 9-days chicken, 1.7 x 10³ CFU/fowl
[17] = oral 200 mg/kg, 9-days chicken, 2.2 x 10³ CFU/fowl
[18] = oral 200 mg/kg, 10-days chicken, 1.2 x 10³ CFU/fowl
[19] = oral 200 mg/kg, 10-days chicken, 3.0 x 10³ CFU/fowl

CN(C)[C@@H]1C(O)=C(C(N)=O)C(=O)[C@@]2(O)C(O)=C3C(=O)c4c(O)ccc(Cl)c4[C@@](C)(O)[C@H]3C[C@@H]12 [CTC, chlorotetracycline hydrochloride, reference compound]
3: Infectious index Right air sack + ([9]; bait 880 ppm/Day)
6.25 µg/mL: In vitro Sensitivity Test MG T-7-T [2]
5: Infectious index Left air sack - ([9]; bait 880 ppm/Day)
0.1 µg/mL: In vitro Sensitivity Test S.typhi 13311 [7] | In vitro Sensitivity Test S.au 209P [8]
4: Number of fowl having air sack lesions ([9]; bait 880 ppm/Day)
1.56 µg/mL: In vitro Sensitivity Test Mh ST-11 [3]
0.05 µg/mL: In vitro Sensitivity Test MS 1853 [4]
1: Infectious index Right air sack ++ ([9]; bait 880 ppm/Day) | Infectious index Right air sack - ([9]; bait 880 ppm/Day)
0.39 µg/ml: In vitro Sensitivity Test MS F10-2as [5]
0: Infectious index Left air sack + ([9]; bait 880 ppm/Day) | Infectious index Left air sack ++ ([9]; bait 880 ppm/Day) | Infectious index Left air sack +++ ([9]; bait 880 ppm/Day) | Infectious index Right air sack +++ ([9]; bait 880 ppm/Day)
12.5 µg/mL: In vitro Sensitivity Test MG S6 [1]
0.39 µg/mL: In vitro Sensitivity Test E.coli JC-2 [6]

C[C@H]1c2cccc(O)c2C(=O)C2=C(O)[C@]3(O)C(=O)C(C(N)=O)=C(O)[C@@H](N(C)C)[C@@H]3[C@@H](O)[C@@H]21 [DOXY, doxycycline, reference compound]
0: Infectious index Left air sack + [11, 12] | Infectious index Left air sack ++ [11, 12] | Infectious index Left air sack +++ [11, 12] | Infectious index Right air sack + [11, 12] | Infectious index Right air sack +++ [11, 12] | Infectious index Left air sack + [11, 13] | Infectious index Left air sack ++ [11, 13] | Infectious index Left air sack +++ [11, 13] | Infectious index Right air sack + [11, 13] | Infectious index Right air sack +++ [11, 13] | Infectious index Left air sack + [11, 14] | Infectious index Left air sack ++ [11, 14] | Infectious index Left air sack +++ [11, 14] | Infectious index Right air sack + [11, 14] | Infectious index Right air sack +++ [11, 14] | Infectious index Left air sack + [11, 15] | Infectious index Left air sack ++ [11, 15] | Infectious index Left air sack +++ [11, 15] | Infectious index Right air sack + [11, 15] | Infectious index Right air sack +++ [11, 15] | Infectious index Left air sack ++ [11, 16] | Infectious index Left air sack +++ [11, 16] | Infectious index Right air sack + [11, 16] | Infectious index Right air sack +++ [11, 16] | Infectious index Left air sack ++ [11, 17] | Infectious index Left air sack +++ [11, 17] | Infectious index Right air sack + [11, 17] | Infectious index Right air sack +++ [11, 17] | Infectious index Left air sack ++ [11, 18] | Infectious index Left air sack +++ [11, 18] | Infectious index Right air sack + [11, 18] | Infectious index Right air sack +++ [11, 18] | Infectious index Left air sack ++ [11, 19] | Infectious index Left air sack +++ [11, 19] | Infectious index Right air sack + [11, 19] | Infectious index Right air sack +++ [11, 19]
0.2 µg/mL: In vitro Sensitivity Test MG S6 [1] | In vitro Sensitivity Test MG T-7-T [2]
4: Infectious index Right air sack - [11, 12] | Infectious index Right air sack - [11, 13] | Infectious index Right air sack - [11, 14] | Infectious index Right air sack - [11, 15] | Infectious index Left air sack - [11, 16] | Infectious index Right air sack - [11, 16] | Infectious index Left air sack - [11, 17] | Infectious index Right air sack - [11, 17] | Infectious index Left air sack - [11, 18] | Infectious index Right air sack - [11, 18] | Infectious index Left air sack - [11, 19] | Infectious index Right air sack - [11, 19]
0.39 µg/mL: In vitro Sensitivity Test E.coli JC-2 [6] | In vitro Sensitivity Test H.pp M-1 [10]
5: Infectious index Left air sack - [11, 12] | Infectious index Left air sack - [11, 13] | Infectious index Left air sack - [11, 14] | Infectious index Left air sack - [11, 15] | Number of fowl having air sack lesions [11, 19]
1: Infectious index Right air sack ++ [11, 12] | Infectious index Right air sack ++ [11, 13] | Infectious index Right air sack ++ [11, 14] | Infectious index Right air sack ++ [11, 15] | Infectious index Left air sack + [11, 16] | Infectious index Right air sack ++ [11, 16] | Infectious index Left air sack + [11, 17] | Infectious index Right air sack ++ [11, 17] | Infectious index Left air sack + [11, 18] | Infectious index Right air sack ++ [11, 18] | Infectious index Left air sack + [11, 19] | Infectious index Right air sack ++ [11, 19] | Number of fowl having air sack lesions [11, 12] | Number of fowl having air sack lesions [11, 13] | Number of fowl having air sack lesions [11, 14] | Number of fowl having air sack lesions [11, 15] | Number of fowl having air sack lesions [11, 16] | Number of fowl having air sack lesions [11, 17] | Number of fowl having air sack lesions [11, 18]
0.39 µg/ml: In vitro Sensitivity Test MS F10-2as [5]
0.1 µg/mL: In vitro Sensitivity Test MS 1853 [4] | In vitro Sensitivity Test S.typhi 13311 [7] | In vitro Sensitivity Test S.au 209P [8]

Tylosin® [TSP, reference compound]
0.39 µg/mL: In vitro Sensitivity Test S.typhi 13311 [7] | In vitro Sensitivity Test S.au 209P [8]
1: Infectious index Left air sack + ([9]; bait 1100 ppm/Day)
2: Infectious index Right air sack ++ ([9]; bait 1100 ppm/Day)
0: Infectious index Left air sack ++ ([9]; bait 1100 ppm/Day) | Infectious index Left air sack +++ ([9]; bait 1100 ppm/Day) | Infectious index Right air sack +++ ([9]; bait 1100 ppm/Day) | Infectious index Right air sack - ([9]; bait 1100 ppm/Day)
3: Infectious index Right air sack + ([9]; bait 1100 ppm/Day)
25.0 µg/mL: In vitro Sensitivity Test E.coli JC-2 [6] | In vitro Sensitivity Test H.pp M-1 [10]
could not inhibit lesions in air sacs: inhibition of lesions in air sacs ([9]; through bait, 1100 ppm)
0.05 µg/mL: In vitro Sensitivity Test MG S6 [1]
4: Infectious index Left air sack - ([9]; bait 1100 ppm/Day)
0.1 µg/mL: In vitro Sensitivity Test Mh ST-11 [3] | In vitro Sensitivity Test MS 1853 [4]
0.1 µg/ml: In vitro Sensitivity Test MS F10-2as [5]
5: Number of fowl having air sack lesions ([9]; bait 1100 ppm/Day)
6.25 µg/mL: In vitro Sensitivity Test MG T-7-T [2]
